Read-outs that look alike come from different tables or passages of the source.
Experiments:
[1] = background statement, no test described; cited from earlier work
[2] = target: T1, histamine; longitudinal muscle from the intact ileum of guinea-pigs (Cavia porcellus, UniProt P31389); assay: In vitro antihistaminic activity: histamine concentration-response curves, isolated guinea-pig ileum longitudinal muscle (Schild plot); assay type: cell-based; details: negative log of the concentration of antagonist which shifts the control histamine concentration-response curve 2X to the right, one hour incubation with test compound, 60 min
T1 construct: The longitudinal muscle was isolated from the intact ileum of guinea-pigs; from tissue; host or cells: longitudinal muscle of the ileum of guinea-pigs (Harley, male 250-400 g)
Procedure: A.Invitro antihistaminic activity: The longitudinal muscle was isolated from the intact ileum of guinea-pigs (Harley, male 250-400 g) and placed in an organ bath under 300 mg tension. After one hour of equilibration, cumulative concentration-response curves (Van Rossum, J. M., Arch. Int. Pharmacodyn. Ther. 143 299-330, 1963) to histamine wee obtained. Following washing, the tissues were incubated for one hour with the test compound and then a second histamine concentration-response curve was run. Shifts to the right of the agonist concentration-response curve produced by the antagonists were used to construct Schild plots (Arunlakshana, O. and Schild, H. O., Br. J. Pharmacol: 14, 48-58, 1959). Regression of Log (dr-1) on Log/B/, where dr is an equiactive response in the presence and absence of antagonist and /B/ is the molar concentration of antagonist, allowed an estimate of pA2, i.e. the negative log of the concentration of antagonist which shifts the control histamine concentration-response curve 2X to the right.
The antihistaminic activities of compounds of the present invention are detailed in table A below.

[3] = cited from earlier work
[4] = cited from earlier work; remark: listed apart in the source

T1 sequence (P31389 whole entry): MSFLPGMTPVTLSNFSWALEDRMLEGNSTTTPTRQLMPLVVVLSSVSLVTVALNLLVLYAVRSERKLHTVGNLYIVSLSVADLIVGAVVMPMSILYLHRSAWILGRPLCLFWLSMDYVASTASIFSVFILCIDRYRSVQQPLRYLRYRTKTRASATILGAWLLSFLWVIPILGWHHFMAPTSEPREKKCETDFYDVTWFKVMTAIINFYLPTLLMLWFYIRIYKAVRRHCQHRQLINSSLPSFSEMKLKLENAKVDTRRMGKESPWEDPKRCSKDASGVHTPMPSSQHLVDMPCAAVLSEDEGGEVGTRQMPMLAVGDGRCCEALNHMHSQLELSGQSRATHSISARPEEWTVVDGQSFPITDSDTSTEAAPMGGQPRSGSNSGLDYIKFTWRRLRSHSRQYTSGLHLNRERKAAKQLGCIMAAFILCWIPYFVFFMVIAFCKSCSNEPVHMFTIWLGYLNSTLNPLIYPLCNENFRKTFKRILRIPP

Structure (SMILES): O=C(O)c1ccc(/C(=C\CN2CCCC2)c2ccccn2)cc1 [(E)-1-(4-carboxyphenyl)-1-(2-pyridyl)-3-pyrrolidinoprop-1-ene]
- antihistamine activity [1]: little or no antihistamine activity

Structure (SMILES): Cc1ccc(/C(=C\CN2CCCC2)c2cccc(/C=C/c3nnn[nH]3)n2)cc1 [Example 1, 5-(E-6-[3-Pyrrolidino-1-(4-tolyl)prop-1E-enyl]-2-pyridylvinyl)-1H-tetrazole]
- pA2 [2]: 8.7

Structure (SMILES): O=S(=O)(O)c1cccc(/C(=C/CN2CCCC2)c2ccccc2)c1 [Example 2, (E)-3-(1-phenyl-3-pyrrolidinoprop-1-enyl)-benzenesulphonic Acid]
- pA2 [2]: 7.1

Structure (SMILES): O=S(=O)(O)c1cccc(C(CCN2CCCC2)c2ccccc2)c1 (stereo not drawn) [Example 3, 3-(1-phenyl-3-pyrrolidinopropyl)benzenesulphonic acid]
- pA2 [2]: 7.3

Structure (SMILES): CC(CN1c2ccccc2Sc2ccccc21)N(C)C (stereo not drawn) [promethazine]
- sedation or drowsiness ([3]; in some patients): cause sedation or drowsiness in some patients

Structure (SMILES): COc1ccc(CN(CCN(C)C)c2ccccn2)cc1 [pyrilamine]
- sedation or drowsiness ([3]; human, in vivo): cause sedation or drowsiness in some patients

Structure (SMILES): Cc1ccc(/C(=C\CN2CCCC2)c2ccccn2)cc1 [triprolidine, (E)-1-(4-methylphenyl)-1-(2-pyridyl)-3-pyrrolidinoprop-1-ene]
- metabolism in man [4]: metabolized in man to (E)-1-(4-carboxyphenyl)-1-(2-pyridyl)-3-pyrrolidinoprop-1-ene
- antihistamine activity [1]: one of the most potent antihistamines available
- sedation or drowsiness ([3]; human, in vivo): cause sedation or drowsiness in some patients

From patent publication US4690933A, “Pyridylvinyl-1H tetrazole having antihistamine activity” (priority 1984, dated 1987)
